From patent US6207393A, “Inhibition of intracellular signal transduction by 14-3-3-binding peptides” (Washington University, priority 1999, dated 2001)
pIC50, pKd: −log10 of the molar value. Values joined by “and” are separate entries in the source; they are usually repeats but may differ in a detail not shown here. Identical values can stand only once. Where a SMILES comes first, the peptide text is derived from it. Where no end group is shown, it is not given here. [ ]: non-standard residue; d: D form. pS = N[C@@H](COP(=O)(O)O)C(=O)O

Legend:
14-3-3 zeta [1] = target: T1, 14-3-3 zeta (Homo sapiens, UniProt P63104); experiment: SPR competitive inhibition of 14-3-3 zeta binding to chip-coupled phosphorylated Raf-259 peptide; details: 14-3-3 zeta 0.5-1.0 μM; competitor 1-50 μM; relative affinity only
T1 construct: made in house; host or cells: E. coli DH5α (vector pGEX-KT)
T1 sequence (P63104 1-245): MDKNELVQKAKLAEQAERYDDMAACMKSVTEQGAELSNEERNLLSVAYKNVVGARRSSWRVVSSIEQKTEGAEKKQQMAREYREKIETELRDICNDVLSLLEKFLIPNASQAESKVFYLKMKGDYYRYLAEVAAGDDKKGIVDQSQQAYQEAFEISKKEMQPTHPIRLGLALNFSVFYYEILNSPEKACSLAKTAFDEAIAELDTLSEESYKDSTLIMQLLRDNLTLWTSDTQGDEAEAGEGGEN
Method: (§1) The ability of each peptide to inhibit binding of 14-3-3 zeta to the phosphorylated peptide was then tested in a range of concentrations between 1 and 50 μM. 14-3-3 zeta was prepared according to the methods in Example 1 and binding affinities and specificities were determined using the peptides in Table 2. The 14-3-3 zeta fusion proteins (0.5-1.0 μM) were pre-incubated with a given peptide at concentrations between 1 μM and 50 μM. 14-3-3 zeta was then infused across a sensor chip surface which had been previously coupled with the phosphorylated Raf-259 peptide (SEQ ID NO: 4). IC50 values were determined by plotting the concentration of competitor peptide required to achieve a 50% reduction in equilibrium binding.

14-3-3 beta = target: T2, 14-3-3 beta (Homo sapiens, UniProt P31946); experiment: SPR competitive inhibition of 14-3-3 beta binding to phosphorylated Raf-259 peptide; details: isoform beta
T2 construct: made in house; host or cells: E. coli DH5α (vector pGEX-KT)
T2 sequence (P31946 1-246): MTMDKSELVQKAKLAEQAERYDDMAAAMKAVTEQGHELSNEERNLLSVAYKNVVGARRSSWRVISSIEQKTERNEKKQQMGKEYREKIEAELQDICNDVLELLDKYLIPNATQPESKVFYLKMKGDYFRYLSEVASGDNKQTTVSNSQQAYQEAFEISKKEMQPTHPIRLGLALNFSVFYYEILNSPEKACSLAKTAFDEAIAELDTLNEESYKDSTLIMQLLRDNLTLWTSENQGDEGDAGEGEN
Method: as §1
(§2) There are seven known isoforms of 14-3-3 which form homo- and heterodimers in vivo. If different isoforms of 14-3-3 could bind to proteins with distinct specificities, heterodimeric forms of 14-3-3 might function as modular linker proteins, bringing together different proteins into a single complex. We were, therefore, interested in determining whether different 14-3-3 isoforms recognize phosphoserine in a sequence specific fashion. This hypothesis was tested by expressing and purifying three other 14-3-3 isoforms, eta, beta and tau, and measuring their affinity towards the panel of phosphorylated peptides generated above. Using the Surface Plasmon Resonance method, the "on" and "off" rates for 14-3-3 binding to the phosphorylated Raf-259 peptide were calculated (Table 6).
(§3) Competitive inhibition with the mutated phosphorylated Raf-1 peptides was used to determine whether their specificities were similar (Table 7). In each case, the calculated IC50 s were very similar to those calculated for 14-3-3 zeta.

14-3-3 eta = target: T3, 14-3-3 eta (Homo sapiens, UniProt Q04917); experiment: SPR competitive inhibition of 14-3-3 eta binding to phosphorylated Raf-259 peptide; details: isoform eta
T3 construct: made in house; host or cells: E. coli DH5α (vector pGEX-KT)
T3 sequence (Q04917 1-246): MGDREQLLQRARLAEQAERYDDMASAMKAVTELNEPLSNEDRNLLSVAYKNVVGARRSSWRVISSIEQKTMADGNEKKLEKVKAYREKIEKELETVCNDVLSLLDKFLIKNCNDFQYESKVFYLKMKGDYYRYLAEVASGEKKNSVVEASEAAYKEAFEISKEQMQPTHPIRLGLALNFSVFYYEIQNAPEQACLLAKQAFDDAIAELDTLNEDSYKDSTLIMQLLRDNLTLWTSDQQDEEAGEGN
Method: as §1, §2, §3

14-3-3 tau = target: T4, 14-3-3 tau (Homo sapiens, UniProt P27348); experiment: SPR competitive inhibition of 14-3-3 tau binding to phosphorylated Raf-259 peptide; details: isoform tau
T4 construct: made in house; host or cells: E. coli DH5α (vector pGEX-KT)
T4 sequence (P27348 1-245): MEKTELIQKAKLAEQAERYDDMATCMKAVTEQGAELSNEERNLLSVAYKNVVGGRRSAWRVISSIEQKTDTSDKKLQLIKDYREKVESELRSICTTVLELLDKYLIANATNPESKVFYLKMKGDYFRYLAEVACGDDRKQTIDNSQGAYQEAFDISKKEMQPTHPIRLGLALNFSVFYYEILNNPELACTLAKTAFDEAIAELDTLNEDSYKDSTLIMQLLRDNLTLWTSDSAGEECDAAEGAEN
Method: as §1, §2, §3

14-3-3 zeta [2] = target: T1, 14-3-3 zeta; experiment: Surface plasmon resonance, GST-14-3-3 zeta binding to immobilized biotinylated Raf-259 peptide (binding and kinetics); details: 14-3-3 zeta
Method: These experiments were performed using the BIAcore 2000 (Pharmacia). The basic principles and detection methods have been reviewed previously (Jonsson et al. Biotech. 11:620-7, 1991; Jonsson et al. Ann Bio Clin 51:19-26, 1993 which are incorporated by reference). In brief, 5 μl of the biotinylated raf-259 peptide (1 nM) was immobilized onto streptavidin-coated (SA5, Pharmacia) sensor chips at a flow rate of 5 μl/min at 25° C. […] To phosphorylate the immobilized peptides, 5 U of PKA in a buffer containing 200 μM ATP in 50 μl was infused over the chip at a flow rate of 2 μl/min at 30° C.
Because the surface plasmon resonance detects binding in real time, this method can be used to directly determine the rates of association (kon) and dissociation (koff). For these kinetic measurements, GST/14-3-3 fusion proteins were injected over a range of concentrations between 200 nM and 5 μM. The "on" rate, kon, was determined by calculating dR/dt for the initial linear portion of association using the Biaevaluation software (Pharmacia). Because ligand rebinding to the sensor chip can affect the "off" rate (koff, Panayotou et al. Mol Cell Biol 13:3567-76, 1993 which is incorporated by reference), we measured the "off" rate in the presence of 50 μM free ligand by using the coinject function of the Biacore. The "off" rate measured in the absence of 50 μM free ligand was approximately 10-fold lower.
The biotinylated, […] Raf-1 peptide (SEQ ID NO: 4) was coupled to avidin coated chip surface to study the kinetics of its binding to 14-3-3 zeta. The association rate was determined to be approximately 2.3×10^4 M^-1×s^-1 and the dissociation rate was determined to be approximately 2.8×10^-3 s^-1. To minimize the effects of protein rebinding to the surface of the sensor chip, the dissociation rate was measured in the presence of 50 μM free phosphorylated Raf-1 peptide.

CC(C)C[C@H](N)C(=O)N[C@@H](CO)C(=O)N[C@@H](CCC(N)=O)C(=O)N[C@@H](C)C(=O)N[C@@H](CCC(N)=O)C(=O)N[C@@H](CO)C(=O)N[C@@H](CCCNC(=N)N)C(=O)N[C@H](C(=O)N[C@@H](COP(=O)(O)O)C(=O)N[C@H](C(=O)N1CCC[C@H]1C(=O)N[C@@H](CC(N)=O)C(=O)N[C@H](C(=O)N[C@@H](Cc1c[nH]cn1)C(=O)N[C@@H](C)C(=O)O)C(C)C)[C@@H](C)O)[C@@H](C)O [Peptide R-2] (H-LSQAQSRT[pS]TPNVHA-OH)
pIC50 (14-3-3 zeta [1]): < 4.30

CC(C)C[C@H](N)C(=O)N[C@@H](CO)C(=O)N[C@@H](CCC(N)=O)C(=O)N[C@@H](CCCNC(=N)N)C(=O)N[C@@H](CCC(N)=O)C(=O)N[C@@H](C)C(=O)N[C@@H](CO)C(=O)N[C@H](C(=O)N[C@@H](COP(=O)(O)O)C(=O)N[C@H](C(=O)N1CCC[C@H]1C(=O)N[C@@H](CC(N)=O)C(=O)N[C@H](C(=O)N[C@@H](Cc1c[nH]cn1)C(=O)N[C@@H](C)C(=O)O)C(C)C)[C@@H](C)O)[C@@H](C)O [Peptide 256RA] (H-LSQRQAST[pS]TPNVHA-OH)
pIC50 (14-3-3 zeta [1]): 4.72

CC(C)C[C@H](N)C(=O)N[C@@H](CO)C(=O)N[C@@H](CCC(N)=O)C(=O)N[C@@H](C)C(=O)N[C@@H](CCCNC(=N)N)C(=O)N[C@@H](CCC(N)=O)C(=O)N[C@@H](CO)C(=O)N[C@H](C(=O)N[C@@H](COP(=O)(O)O)C(=O)N[C@H](C(=O)N1CCC[C@H]1C(=O)N[C@@H](CC(N)=O)C(=O)N[C@H](C(=O)N[C@@H](Cc1c[nH]cn1)C(=O)N[C@@H](C)C(=O)O)C(C)C)[C@@H](C)O)[C@@H](C)O [Peptide R-4] (H-LSQARQST[pS]TPNVHA-OH)
pIC50 (14-3-3 zeta [1]): 4.96

CC(C)C[C@H](N)C(=O)N[C@@H](CO)C(=O)N[C@@H](CCC(N)=O)C(=O)N[C@@H](CCCNC(=N)N)C(=O)N[C@@H](CCC(N)=O)C(=O)N[C@@H](CCCNC(=N)N)C(=O)N[C@@H](COP(=O)(O)O)C(=O)N[C@H](C(=O)N[C@@H](CO)C(=O)N[C@H](C(=O)N1CCC[C@H]1C(=O)N[C@@H](CC(N)=O)C(=O)N[C@H](C(=O)N[C@@H](Cc1c[nH]cn1)C(=O)N[C@@H](C)C(=O)O)C(C)C)[C@@H](C)O)[C@@H](C)O [pS-Raf-257] (H-LSQRQR[pS]TSTPNVHA-OH)
pIC50 (14-3-3 beta): < 4.30 | pIC50 (14-3-3 eta): < 4.30 | pIC50 (14-3-3 zeta [1]): < 4.30 | pIC50 (14-3-3 tau): < 4.30

CSCC[C@H](NC(=O)[C@H](Cc1c[nH]cn1)NC(=O)[C@@H](NC(=O)[C@H](CC(N)=O)NC(=O)[C@H](C)NC(=O)[C@@H](NC(=O)[C@H](COP(=O)(O)O)NC(=O)[C@@H](NC(=O)[C@H](CO)NC(=O)[C@H](CCCNC(=N)N)NC(=O)[C@H](CCC(N)=O)NC(=O)[C@H](CCCNC(=N)N)NC(=O)[C@H](CCC(N)=O)NC(=O)[C@H](CO)NC(=O)[C@@H](N)CC(C)C)[C@@H](C)O)[C@@H](C)O)C(C)C)C(=O)O [PA] (H-LSQRQRST[pS]TANVHM-OH)
pIC50 (14-3-3 beta): 4.62 | pIC50 (14-3-3 eta): 4.70 | pIC50 (14-3-3 zeta [1]): ~4.60 and 4.60 | pIC50 (14-3-3 tau): 4.57

LSQRQRSTSTPNVHM [Raf-259, LSQRQRSTSTPNVHM, reference compound]
pKd (14-3-3 zeta [2]; KD = koff/kon, read-out: apparent KD measured by SPR): ~6.91 | koff (14-3-3 zeta [2]; in the presence of 50 μM free phosphorylated Raf-1 peptide, read-out: dissociation rate): ~0.0028 s⁻¹ | kon (14-3-3 zeta [2]; read-out: association rate): ~23000 M⁻¹ s⁻¹

CC(C)C[C@H](N)C(=O)N[C@@H](CO)C(=O)N[C@@H](CCC(N)=O)C(=O)N[C@@H](C)C(=O)N[C@@H](CCC(N)=O)C(=O)N[C@@H](C)C(=O)N[C@@H](CO)C(=O)N[C@H](C(=O)N[C@@H](COP(=O)(O)O)C(=O)N[C@H](C(=O)N1CCC[C@H]1C(=O)N[C@@H](CC(N)=O)C(=O)N[C@H](C(=O)N[C@@H](Cc1c[nH]cn1)C(=O)N[C@@H](C)C(=O)O)C(C)C)[C@@H](C)O)[C@@H](C)O [254/256RA] (H-LSQAQAST[pS]TPNVHA-OH)
pIC50 (14-3-3 beta): < 4.30 | pIC50 (14-3-3 eta): < 4.30 | pIC50 (14-3-3 zeta [1]): < 4.30 | pIC50 (14-3-3 tau): < 4.30

CC(C)C[C@H](N)C(=O)N[C@@H](CO)C(=O)N[C@@H](CCC(N)=O)C(=O)N[C@@H](C)C(=O)N[C@@H](CCC(N)=O)C(=O)N[C@@H](CCCNC(=N)N)C(=O)N[C@@H](CO)C(=O)N[C@H](C(=O)N[C@@H](COP(=O)(O)O)C(=O)N[C@H](C(=O)N1CCC[C@H]1C(=O)N[C@@H](CC(N)=O)C(=O)N[C@H](C(=O)N[C@@H](Cc1c[nH]cn1)C(=O)N[C@@H](C)C(=O)O)C(C)C)[C@@H](C)O)[C@@H](C)O [Peptide 254RA] (H-LSQAQRST[pS]TPNVHA-OH)
pIC50 (14-3-3 zeta [1]): 5.05

CC(C)C[C@H](N)C(=O)N[C@@H](CO)C(=O)N[C@@H](CCC(N)=O)C(=O)N[C@@H](CCCNC(=N)N)C(=O)N[C@@H](CCC(N)=O)C(=O)N[C@@H](CCCNC(=N)N)C(=O)N[C@@H](COP(=O)(O)O)C(=O)N[C@H](C(=O)N[C@@H](COP(=O)(O)O)C(=O)N[C@H](C(=O)N1CCC[C@H]1C(=O)N[C@@H](CC(N)=O)C(=O)N[C@H](C(=O)N[C@@H](Cc1c[nH]cn1)C(=O)N[C@@H](C)C(=O)O)C(C)C)[C@@H](C)O)[C@@H](C)O [pS-Raf-257,259] (H-LSQRQR[pS]T[pS]TPNVHA-OH)
pIC50 (14-3-3 beta): < 4.30 | pIC50 (14-3-3 eta): < 4.30 | pIC50 (14-3-3 zeta [1]): < 4.30 | pIC50 (14-3-3 tau): < 4.30
